{"source": "the C3SDB collision cross section collection", "key": {"[1]": {"settings": "instrument: TW, calibrated with polyalanine"}, "[2]": {"settings": "instrument: TW, calibrated with phosphatidylcholines (ESI+) and phosphatidylethanolamines (ESI-)"}, "[3]": {"settings": "instrument: TW, calibrated with phosphatidylcholines (ESI+) and phosphatidylethanolamines (ESI-)", "remark": "listed apart in the source"}, "[4]": {"settings": "instrument: DT, single field"}, "[5]": {"settings": "instrument: DT, single field, calibrated with Agilent tune mix (Agilent)"}, "[6]": {"settings": "[M+H]+; instrument: DT; stepped-field"}, "[7]": {"settings": "[M+K]+; instrument: DT; stepped-field"}}, "note": "Values joined by “and” are separate entries in the source; they are usually repeats but may differ in a detail not shown here. Identical values can stand only once."}
{"smiles": "Nc1ncnc2c1ncn2[C@@H]1O[C@H](COP(=O)(O)O)[C@@H](O)[C@H]1O", "note": "[AMP]", "values": [{"measurement": "collision cross section (N2)", "setting": "[1]; [M+H]+", "result": 167, "unit": "Å²"}]}
{"smiles": "N[C@@H](CC(=O)O)C(=O)O", "note": "[Aspartic acid]", "values": [{"measurement": "collision cross section (N2)", "setting": "[1]; [M+H]+", "result": 122, "unit": "Å²"}]}
{"smiles": "C[N+](C)(C)C[C@H](O)CC(=O)[O-]", "note": "[Carnitine]", "values": [{"measurement": "collision cross section (N2)", "setting": "[1]; [M+H]+", "result": 130, "unit": "Å²"}]}
{"smiles": "CCCCCCCCCCCC=CCC(=O)OC[C@H](CO[C@@H]1O[C@H](CO[C@H]2O[C@H](CO)[C@H](O)C(O)C2O)[C@H](O)C(O)C1O)OC(=O)CC=CCCCCCCCCCCC", "note": "(stereo partly specified) [DGDG(30:2)]", "values": [{"measurement": "collision cross section (N2)", "setting": "[2]; [M+NH4]+", "result": 295.4, "unit": "Å²"}, {"measurement": "collision cross section (N2)", "setting": "[2]; [M+Na]+", "result": 291.7, "unit": "Å²"}]}
{"smiles": "CCCCCCCCCCCCCCCC(=O)OC[C@H](CO[C@@H]1O[C@H](CO[C@H]2O[C@H](CO)[C@H](O)C(O)C2O)[C@H](O)C(O)C1O)OC(=O)CCCCCCCCCCCCCCC", "note": "(stereo partly specified) [DGDG(32:0)]", "values": [{"measurement": "collision cross section (N2)", "setting": "[2]; [M+NH4]+", "result": 308.5, "unit": "Å²"}, {"measurement": "collision cross section (N2)", "setting": "[2]; [M+Na]+", "result": 306.7, "unit": "Å²"}]}
{"smiles": "CCCCCCCCCCCCC=CCC=CCC(=O)OC[C@H](CO[C@@H]1O[C@H](CO[C@H]2O[C@H](CO)[C@H](O)C(O)C2O)[C@H](O)C(O)C1O)OC(=O)CC=CCCCCCCCCCCCCCC", "note": "(stereo partly specified) [DGDG(35:1)]", "values": [{"measurement": "collision cross section (N2)", "setting": "[2]; M+NH4]+", "result": 317.4, "unit": "Å²"}]}
{"smiles": "CCCCCCCCCCCCCCCCCC(=O)OC[C@H](CO[C@@H]1O[C@H](CO[C@H]2O[C@H](CO)[C@H](O)C(O)C2O)[C@H](O)C(O)C1O)OC(=O)CCCCCCCCCCCCCCCCC", "note": "(stereo partly specified) [DGDG(36:0)]", "values": [{"measurement": "collision cross section (N2)", "setting": "[2]; [M+NH4]+", "result": 326.8, "unit": "Å²"}]}
{"smiles": "O=P(O)(O)OC[C@H](O)CO", "note": "[Glycerol monophosphate]", "values": [{"measurement": "collision cross section (N2)", "setting": "[1]; [M+Na]+", "result": 132, "unit": "Å²"}]}
{"smiles": "CCCCCCCCCCCCCCC(=O)OCC(COP(=O)([O-])OCC(O)COC(=O)C(N)CCCC[NH3+])OC(=O)CCCCCCCCCCCCC", "note": "(stereo unspecified) [LysPG(29:0)]", "values": [{"measurement": "collision cross section (N2)", "setting": "[2]; [M+H]+", "result": 287.8, "unit": "Å²"}]}
{"smiles": "CCCCCC/C=C\\CCCCCCCCCC(=O)OCC(COP(=O)([O-])OCC(O)COC(=O)C(N)CCCC[NH3+])OC(=O)CCCCCCC/C=C\\CCCCCC", "note": "(stereo unspecified) [LysPG(34:2)]", "values": [{"measurement": "collision cross section (N2)", "setting": "[2]; [M+H]+", "result": 298.4, "unit": "Å²"}]}
{"smiles": "CCCCCCCCCCCCCCCCCCCC(=O)OC(COC(=O)CCCCCCCCCCCCCC)COP(=O)([O-])OCC(O)COC(=O)C(N)CCCC[NH3+]", "note": "(stereo unspecified) [LysPG(35:0)]", "values": [{"measurement": "collision cross section (N2)", "setting": "[2]; [M+H]+", "result": 305.4, "unit": "Å²"}]}
{"smiles": "NCCCC[C@H](N)C(=O)O", "note": "[Lysine]", "values": [{"measurement": "collision cross section (N2)", "setting": "[1]; [M+H]+", "result": 127, "unit": "Å²"}]}
{"smiles": "CC/C=C\\C/C=C\\C/C=C\\CCCCCCCC(=O)OC[C@H](CO[C@@H]1O[C@H](CO)[C@H](O)C(O)C1O)OC(=O)CCCCC/C=C\\CCCCCCCC", "note": "(stereo partly specified) [MGDG(16:1/18:3)]", "values": [{"measurement": "collision cross section (N2)", "setting": "[2]; [M+NH4]+", "result": 281.2, "unit": "Å²"}, {"measurement": "collision cross section (N2)", "setting": "[2]; [M+Na]+", "result": 278.6, "unit": "Å²"}]}
{"smiles": "CC/C=C\\C/C=C\\C/C=C\\CCCCCCCC(=O)OC[C@H](CO[C@@H]1O[C@H](CO)[C@H](O)C(O)C1O)OC(=O)CCCCCCC/C=C\\C/C=C\\C/C=C\\CC", "note": "(stereo partly specified) [MGDG(18:3/18:3)]", "values": [{"measurement": "collision cross section (N2)", "setting": "[2]; [M+CH3COO]-", "result": 286.3, "unit": "Å²"}, {"measurement": "collision cross section (N2)", "setting": "[2]; [M+Cl]-", "result": 278.5, "unit": "Å²"}, {"measurement": "collision cross section (N2)", "setting": "[2]; [M+K]+", "result": 282.5, "unit": "Å²"}, {"measurement": "collision cross section (N2)", "setting": "[2]; [M+NH4]+", "result": 284.1, "unit": "Å²"}, {"measurement": "collision cross section (N2)", "setting": "[2]; [M+Na]+", "result": 281, "unit": "Å²"}, {"measurement": "collision cross section (N2)", "setting": "[2]; [M-H]-", "result": 276.2, "unit": "Å²"}]}
{"smiles": "CCCCCCCCCCCCCCCCCCC(=O)OC[C@H](COP(=O)(O)O)OC(=O)CCCCCCCCCCCC", "note": "[PA(16:0/16:0)]", "values": [{"measurement": "collision cross section (N2)", "setting": "[2]; [M-H]-", "result": 251.4, "unit": "Å²"}]}
{"smiles": "CCCCCCCCCCCCCCCCC(=O)OC[C@H](COP(=O)(O)O)OC(=O)CCCCCCCCCCCC", "note": "[PA(30:0)]", "values": [{"measurement": "collision cross section (N2)", "setting": "[2]; [M-H]-", "result": 244.9, "unit": "Å²"}]}
{"smiles": "CCCCCCCCCCCCCCCCCCC(=O)OC[C@H](COP(=O)(O)O)OC(=O)CCCCCCCCCCCC", "note": "[PA(32:0)]", "values": [{"measurement": "collision cross section (N2)", "setting": "[2]; [M-H]-", "result": 251.1, "unit": "Å²"}]}
{"smiles": "CCCCCCCCCCCCCCCCCCC(=O)O[C@H](COC(=O)CCCCCCCCCCCCCCCC)COP(=O)(O)O", "note": "[PA(36:0)]", "values": [{"measurement": "collision cross section (N2)", "setting": "[2]; [M-H]-", "result": 264.1, "unit": "Å²"}]}
{"smiles": "CCCCCCCCCCCCCCCCCCCCC(=O)O[C@H](COC(=O)CCCCCCCCCCCC)COP(=O)([O-])OCC[N+](C)(C)C", "note": "[PC(34:0)]", "values": [{"measurement": "collision cross section (N2)", "setting": "[3]; [M+H]+", "result": 285.8, "unit": "Å²"}, {"measurement": "collision cross section (N2)", "setting": "[4]; [M+H]+", "result": "289.07 Å² and 290.41 Å²"}, {"measurement": "collision cross section (N2)", "setting": "[4]; [M+Na]+", "result": 288.39, "unit": "Å²"}, {"measurement": "collision cross section (N2)", "setting": "[5]; [M+H]+", "result": 289.7, "unit": "Å²"}, {"measurement": "collision cross section (N2)", "setting": "[6]", "result": 301.1, "unit": "Å²"}]}
{"smiles": "CCCCCC/C=C\\CCCCCCCCCC(=O)OC[C@H](COP(=O)([O-])OCC[N+](C)(C)C)OC(=O)CCCCCCCCCCCCCCC", "note": "[PC(34:1)]", "values": [{"measurement": "collision cross section (N2)", "setting": "[3]; [M+CH3COO]-", "result": 289.1, "unit": "Å²"}, {"measurement": "collision cross section (N2)", "setting": "[3]; [M+H]+", "result": 285.3, "unit": "Å²"}, {"measurement": "collision cross section (N2)", "setting": "[4]; [M+H]+", "result": "285.62 Å² and 287.54 Å²"}, {"measurement": "collision cross section (N2)", "setting": "[5]; [M+H]+", "result": 287.1, "unit": "Å²"}, {"measurement": "collision cross section (N2)", "setting": "[6]", "result": 300.3, "unit": "Å²"}]}
{"smiles": "CCCCCCCC/C=C\\C/C=C\\C/C=C\\CCCC(=O)OC[C@H](COP(=O)([O-])OCC[N+](C)(C)C)OC(=O)CCCCCCCCCCCCC", "note": "[PC(34:3)]", "values": [{"measurement": "collision cross section (N2)", "setting": "[3]; [M+H]+", "result": 278.8, "unit": "Å²"}, {"measurement": "collision cross section (N2)", "setting": "[5]; [M+HCOO]-", "result": 283.5, "unit": "Å²"}, {"measurement": "collision cross section (N2)", "setting": "[5]; [M+H]+", "result": 281.8, "unit": "Å²"}, {"measurement": "collision cross section (N2)", "setting": "[6]", "result": 292.3, "unit": "Å²"}, {"measurement": "collision cross section (N2)", "setting": "[7]", "result": 292.4, "unit": "Å²"}]}
